Results taken from ChEMBL document CHEMBL1151610, “Use of potato disc and brine shrimp bioassays to detect activity and isolate piceatannol as the antileukemic principle from the seeds of Euphorbia lagascae” (J Nat Prod, 1984).
≈ marks a conversion by molar mass, not a printed value. Calls of active or inactive are those of the source. The calls are words filed in the database; no cut-off is given here.

Key:
Mus musculus = assay: Antitumor activity against mouse 3PS cells xenografted mouse assessed as increase in life span; assay type: functional, cell-based
[1] = Toxicity against brine shrimp; assay type: organism-based; conditions: artemia, in vivo
[2] = system: Agrobacterium tumefaciens; assay: Antitumor activity against Agrobacterium tumefaciens-induced tumor formation at 10 ug/disk by potato disk assay; assay type: functional
[3] = Cytotoxicity against mouse 9PS cells; assay type: functional; conditions: read-out: LC50 (the source's name)
[4] = Antitumor activity against mouse 3PS cells xenografted mouse assessed as increase in life span at 25 mg/kg; assay type: functional
[5] = Antitumor activity against mouse 3PS cells xenografted mouse assessed as increase in life span at 12.5 mg/kg; assay type: functional
[6] = Antitumor activity against mouse 3PS cells xenografted mouse assessed as increase in life span at 6.25 mg/kg; assay type: functional
[7] = Antitumor activity against mouse 3PS cells xenografted mouse assessed as increase in life span at 3.62 mg/kg; assay type: functional
[8] = Antitumor activity against mouse 3PS cells xenografted mouse assessed as increase in life span at 50 mg/kg; assay type: functional

SMILES: O=c1ccc2cc(O)c(O)cc2o1 [ESCULETIN]
- Activity (Mus musculus): inactive
- LC50 [1]: > 1000 µg/mL
- Activity [2]: -13%
- CC50 [3]: 3.9 µg/mL (≈ 21.9 µM)

SMILES: Oc1cc(O)cc(/C=C/c2ccc(O)c(O)c2)c1 [PICEATANNOL]
- Activity [4]: 123%
- Activity [5]: 118%
- Activity [6]: 114%
- Activity [7]: 109%
- Activity [8]: 131%
- LC50 [1]: 278 µg/mL (≈ 1140 µM)
- Activity [2]: -20%
- CC50 [3]: 2.5 µg/mL (≈ 10.2 µM)
